Measured values from ChEMBL document CHEMBL1201862, “PubChem BioAssay data set” (2004).
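Values below derive from 48-hour exposures of cells grown in 96-well plates, with endpoints linearly interpolated between the two concentrations bracketing the appropriate inhibition level. GI50 = concentration required for 50% inhibition of growth.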 Active and inactive are the calls of the source. Rule as the data show it: active = GI50 up to about 1.1 µM and inactive = higher.

Experiments:
Assay in all cases: NCI anticancer screen, dose series, 48 h
A549 = test system: A549
786-0 = test system: 786-0
KM12 = test system: KM12
NCI/ADR-RES = test system: NCI/ADR-RES
MCF7 = test system: MCF7
LOX IMVI = test system: LOX IMVI
SF-295 = test system: SF-295
DU-145 = test system: DU-145
UACC-257 = test system: UACC-257
BT-549 = test system: BT-549
NCI-H226 = test system: NCI-H226
NCI-H23 = test system: NCI-H23
SNB-75 = test system: SNB-75
UACC-62 = test system: UACC-62
COLO 205 = test system: COLO 205
HL-60 = test system: HL-60
TK-10 = test system: TK-10
SNB-78 = test system: SNB-78
T47D = test system: T47D
HCC 2998 = test system: HCC 2998

Compound | GI50 (A549) | GI50 (786-0) | GI50 (KM12) | GI50 (NCI/ADR-RES) | GI50 (MCF7) | GI50 (LOX IMVI) | GI50 (SF-295) | GI50 (DU-145) | GI50 (UACC-257) | GI50 (BT-549) | GI50 (NCI-H226) | GI50 (NCI-H23) | GI50 (SNB-75) | GI50 (UACC-62) | GI50 (COLO 205) | GI50 (HL-60) | GI50 (TK-10) | GI50 (SNB-78) | GI50 (T47D) | GI50 (HCC 2998)
O=C1/C(=C/c2ccccc2)CN(C(=O)CCN2CCOCC2)C/C1=C\c1ccccc1 | 7.16 µM (inactive) | 1.96 µM (inactive) | 1.6 µM (inactive) | 3.16 µM (inactive) | 1.95 µM (inactive) | 0.897 µM (active) | 2.42 µM (inactive) | 16 µM (inactive) | 2.13 µM (inactive) | 2.14 µM (inactive) | 5.89 µM (inactive) | 2.55 µM (inactive) | 7.18 µM (inactive) | 1.88 µM (inactive) | 2.74 µM (inactive) | 1.32 µM (inactive) | 11.9 µM (inactive) | 6.4 µM (inactive) | 3.34 µM (inactive) | 1.87 µM (inactive)
CCN(CC)CCn1ccc(=O)c2cc3c(=O)ccn(CCN(CC)CC)c3c(C)c21 | 4.27 µM (inactive) | 1.92 µM (inactive) | 0.993 µM (active) | 1.41 µM (inactive) | 20.8 µM (inactive) | 2.84 µM (inactive) | 4.47 µM (inactive) | 5.19 µM (inactive) | 16.7 µM (inactive) | 14.5 µM (inactive) | 10.9 µM (inactive) | 6.75 µM (inactive) | 9.91 µM (inactive) | 15.4 µM (inactive) | 3.87 µM (inactive) | 1.42 µM (inactive) | 7.43 µM (inactive) | 11.4 µM (inactive) | 25.1 µM (inactive) | 1.44 µM (inactive)
Oc1nc2cc(Cl)ccc2nc1/C(=N\Nc1ccccc1)C(O)c1ccc(Cl)c(Cl)c1 (stereo not given) | > 100 µM (inactive) | > 100 µM (inactive) | > 100 µM (inactive) | – | – | > 100 µM (inactive) | > 100 µM (inactive) | – | > 100 µM (inactive) | – | > 100 µM (inactive) | > 100 µM (inactive) | > 100 µM (inactive) | > 100 µM (inactive) | > 100 µM (inactive) | > 100 µM (inactive) | > 100 µM (inactive) | > 100 µM (inactive) | – | > 100 µM (inactive)
C=C(CN(C)C)C(=O)c1ccccc1[N+](=O)[O-] | > 57.8 µM (inactive) | 12.2 µM (inactive) | 31.1 µM (inactive) | 19.2 µM (inactive) | 14.3 µM (inactive) | 7.94 µM (inactive) | 32.8 µM (inactive) | 23.6 µM (inactive) | 15.8 µM (inactive) | 16.3 µM (inactive) | 30.1 µM (inactive) | 16.9 µM (inactive) | 34.8 µM (inactive) | 17.9 µM (inactive) | 7.8 µM (inactive) | 2.79 µM (inactive) | 19.5 µM (inactive) | 26.7 µM (inactive) | 3.83 µM (inactive) | 29.9 µM (inactive)
